Values of other authors in patent publication US20240024221A1, “COMPOSITION FOR BRIGHTENING AND/OR WHITENING KERATIN MATERIALS” (L'OREAL, priority 2020, published 2024).

Conditions: 25° C.; raw material table

| Compound | HLB |
| --- | --- |
| CCCCCCCCCCCC[N+](C)(C)CC(=O)[O-] [LAURYL BETAINE] | 15 |
| CCCCCCCCCCC(CCCCCCCC)CO[C@@H]1OC[C@@H](O)[C@H](O)[C@H]1O (some centres unmarked) [OCTYLDODECYL XYLOSIDE] | 7.3 |
| POLYGLYCERYL-2 OLEATE | 8 |
| POLYSORBATE 20 | 18.6 |
| SODIUM DILAURAMIDOGLUTAMIDE LYSINE | 12.6 |
